The values below come from publication PMC12299890 (Pharmaceuticals, 2025).

On the set-up of data set [1]: method as in PMID 16250252. The settings on record: male Sprague-Dawley rats; cited from earlier work.
The nature of data set [2]: Pharmacokinetics of MI in Wistar rat model after oral administration (Antonowski and co-workers). Type of data set: in vivo. Conditions: rat serum; MI data of ref 30 vs SCI of this study. The protocol:
Antonowski and co-workers examined the PK of MI in Wistar rat models.
Bioavailability studies in animal models are a critical step in evaluating how much of a substance is absorbed and becomes available in the body. A rat model is excellent to maximize the relevance of SCI to human health. Antonowski and co-workers used a rat model for the PK analysis of MI. In this study, a dose of 20 mg/kg MI was orally administrated to rats and afterwards, the serum concentration of MI was measured. […] Then, the concentration of MI began to decrease immediately. […] Studies should be extended to include intraperitoneal injection or direct injection into blood vessels to determine the bioactivity of these INSs.

The conditions of data set [3]: cited from earlier work.

“Also recorded” adds a separate entry of the source.

As for `O=C(O)[C@H]1O[C@@H](Oc2cc3oc(-c4ccc(O)cc4)cc(=O)c3c(O)c2O)[C@H](O)[C@@H](O)[C@@H]1O` [scutellarin], the “Relative bioavailability of oral administration compared to intraperitoneal injection” value in data set [1] is “very low”.

Take `O[C@H]1[C@H](O)[C@@H](O)[C@H](O)[C@@H](O)[C@H]1O` [MI, myo-inositol]: the “AUC of MI compared with SCI” value in data set [2] is “lower than for SCI”. In data set [3] (oral MI), the “Side effects of MI administration” value was “no serious side effects”. Moreover, the “Time of highest MI serum concentration (Cmax) after oral administration” value in data set [3] (serum, oral 20 mg/kg MI) is reported as “first hour”. For the same molecule, in data set [3] (serum, oral MI), the “MI level 24 h after administration” value was “still higher than before the administration; also recorded: still higher than before the supplementation”.
